Experimental data: patent US20030157715A1, “Modulation of chromosome function by chromatin remodeling agents” (priority 2000, published 2003)

Key:
bw^D/bw^D; Ubx^1/+ flies = assay: P31 fed to developing Ubx^1/+; bw^D flies; assay type: in vivo, Drosophila melanogaster
Source text: (§1) P31 enhances haltere-to-wing transformation in heterozygous bw^D/bw; Ubx^1/+ flies: The GAGA factor is know to bind to the promoter of Ubx and to stimulate its transcription in vitro (Biggin and Tjian, 1988) The Trl locus also genetically interacts with Ubx, since Trl^13C dominantly enhances the segmental transformation observed in Ubx heterozygotes. […] We asked, does P31 also chemically mimic the genetic interaction of Ubx and Trl^13C? To address this issue, we fed P31 to two genotypes, +/+; Ubx/+ and bw^D/bw^D; Ubx^1/+. The latter genotype was obtained by crossing bw^D/bw^D; st/st females and bw^D/bw^D Ubx^1/Tm3, sb males.
The progeny of these two genotypes raised in the presence of P31 were scored both for the A6 to A5 and the haltere-to-wing transformations as well as for the sex comb reduced phenotypes (Table 3). […] However, eight of them (out of approximately 100) reached a late pupae stage and thus could be dissected to inspect their morphology. […] This transformation was manifested by an enlarged size and gray color of the halteres, and also by the appearance of numerous bristles at the base of the halteres that are characteristic of the anterior wing margin. […] We conclude that the chemical mimicry by P31 in a bw^D genetic backgrounds extends to the genetic interaction of Trl^13C with Ubx.
(§2) The lethality of the progenies was calculated by counting the dead bodies and the total empty pupal shells. The A6 to A5 transformation was detected by bristles that form on abdominal segment A6 on males. All male adult flies obtained (˜50) were scored. Sex combs and halteres were individually inspected and photographed under the microscope (Axiophot, Zeiss) after dissecting at least 30 individuals and incubating them into 30 μl of 0.6 g/ml gum arabic; 4 g/ml chlorohydrate; 35% glycerol under a 24×24 mm coverslip as described (Ashburner, 1989). Since raising double heterozygous flies (Ubx^1/+; bw^D/+) led to lethality, we morphologically dissected eight late stage pupae after carefully removing the pupal envelope.

Ubx^1/+ flies = assay: P31 fed to developing Ubx^1/+ flies; assay type: in vivo, Drosophila melanogaster
Source text: as §1, §2

[1] = test system: GAF binding site from the Ubx promoter; assay: DNase I footprinting on Ubx GAF binding site (GAF31 probe); set-up: species or system Drosophila melanogaster; conditions: same probe as bw^D repeats
Source text: A footprint experiment was therefore carried out with this protein. The DNA probe (GAF31) used for this purpose contains besides the (AAGAG)2 motif (the target of P31) a typical promoter proximal GAF binding site derived from the Ubx gene (Biggin et al., 1988). This Ubx site contains the pentameric consensus sequence GAGAG of GAF (Omichinski et al., 1997). […] Selective Staining of GAGAA Satellite V in Nuclei and Polytene Chromosomes:
(§3) Synthetic oligonucleotides […] and […] were hybridized to obtain the W9 probe, oligomerized by ligation and digested with BamHI and BglII to obtain different tandem repeats. The following oligonucleotides were prepared identically: GAF31 is composed of the oligonucleotides […] and […] and, BrownI of oligonucleotides […] and […]. Fragments were purified on low-melt agarose gels and then cloned into a modified pSP64 vector, cut by BamHI and BglII. End-labeling was carried out following digestion with HindIII and a fill-in reaction with Klenow DNA polymerase. The labeled plasmid was cut with PvuII and the target fragments purified from low-melting agarose gels. The 657 bp EcoR1/Hinf1 fragment of the Drosophila histone SAR was cloned into the SmaI site of the modified pSP64 plasmid. This SAR probe was end-labeled following-digestion with EcoR1, then cut with ClaI and the resulting 347 bp fragment purified from low-melting agarose gels. […]

CACAA repeats = assay: DNase I footprinting on CACAA repeats (Brown I probe); assay type: binding
Source text: A drawback of this binding model, as opposed to conventional 2:1 drug to DNA complexes, is that P31 is expected to bind degenerate GC and CG base pairs, albeit with different affinity. The consensus sequence can thus be defined as SWSWWSWSWW, where S stands for a G or C and W for A or T. To evaluate binding of P31 to CACAA repeats, we used a second probe that contains two of these repeats as well as five tandem GAGAA repeats. […] Again, it is observed than this molecule binds as a 1:1 drug to DNA complex in an orientation as indicated by arrowheads (FIG. 3A). We propose that special structural features of AT-tracts and GAGAA repeats might favor 1:1 DNA to drug complexes.
as §3, with “gels.” for “gels. The 657 bp EcoR1/Hinf1 fragment of the Drosophila histone SAR was cloned into the SmaI site of the modified pSP64 plasmid. This SAR probe was end-labeled following-digestion with EcoR1, then cut with ClaI and the resulting 347 bp fragment purified from low-melting agarose gels.”

Question: For `CN(C)CCCNC(=O)CCNC(=O)c1nc(NC(=O)CCNC(=O)c2nc(NC(=O)CCNC(=O)c3cc(NC(=O)c4nc(NC(=O)CCNC(=O)c5nccn5C)cn4C)cn3C)cn2C)cn1C` [Compound P31, Im-β-Im-Py-β-Im-β-Im-β-Dp], which “pupae with clear signs of haltere-to-wing transformation” value (bw^D/bw^D; Ubx^1/+ flies; bw^D/bw^D, Ubx^1/+, dissected late pupae) is on record?
Answer: Its value is “five of eight”.

Question: And the “A6 to A5” value (bw^D/bw^D; Ubx^1/+ flies; fly stock Ubx^1/+, bw^D)?
Answer: Its value is 100%.

Question: And the Lethality (bw^D/bw^D; Ubx^1/+ flies; fly stock Ubx^1/+, bw^D)?
Answer: The Lethality was 100%.

Question: And the “Sex comb (mean)” value (bw^D/bw^D; Ubx^1/+ flies; fly stock Ubx^1/+, bw^D)?
Answer: The value was 7.4.

Question: What about the “Sex comb, range of teeth” value (bw^D/bw^D; Ubx^1/+ flies; fly stock Ubx^1/+, bw^D) of the same molecule?
Answer: The value was 5-9.

Question: And the “A6 to A5, number of bristles on A6” value (bw^D/bw^D; Ubx^1/+ flies; fly stock Ubx^1/+, bw^D, dissected late pupae)?
Answer: Its value is 2-6.

Question: And the “effect on development (in words)” value (bw^D/bw^D; Ubx^1/+ flies; in vivo)?
Answer: The value was “blocked their development completely”.

Question: And the “A6 to A5” value (Ubx^1/+ flies; fly stock Ubx^1/+)?
Answer: Its value is 0%.

Question: And the Lethality (Ubx^1/+ flies; fly stock Ubx^1/+)?
Answer: Its Lethality is 10%.

Question: What about the “Sex comb (mean)” value (Ubx^1/+ flies; fly stock Ubx^1/+) of the same molecule?
Answer: Its value is 10.3.

Question: And the “Sex comb, range of teeth” value (Ubx^1/+ flies; fly stock Ubx^1/+)?
Answer: The value was 8-12.

Question: What about the “alteration of phenotype (in words)” value (Ubx^1/+ flies; progeny of Ubx^1/+ flies) of the same molecule?
Answer: Its value is “no altered phenotype”.

Question: And the “ligand concentration up to which no binding is noted at the Ubx GAF site” value [1]?
Answer: Its value is over 25 nM.

Question: What about the “affinity for CACAA repeats relative to GAGAA repeats” value (CACAA repeats) of the same molecule?
Answer: The value was “approximately five fold lower affinity”.
